This is an account of results in a melting point compilation (Tetko et al.; mined from patent text by program, amines drawn as free bases though some values may be those of a salt).

Consider `CCC(=O)NC(=O)Nc1ccc(OC)c(OC)c1`, for which the melting point is 193 to 197 °C.

Turning to `c1ccc2sc(C3CCNCC3)cc2c1`, the melting point lay within 82 to 84 °C.

With `CCC(O)(c1ccc(F)cc1)c1ccc(OCCN2CCCCC2)cc1` (stereo unspecified), the melting point lay within 72 to 73 °C.

On to `CCOC(=O)C(=NNc1ccccc1)C(C)=O`, for which the melting point was in the range of 75 to 76 °C.

Regarding `O=Cc1ccn2c1CCC2`, the melting point was found to be 58 °C.

The molecule `COC(=O)c1cc(OC)c([N+](=O)[O-])cc1NC(C)=O` came in with a melting point of 141 to 143 °C.

The molecule `COC(=O)Cc1ccc([N+](=O)[O-])cc1` returned a melting point of 45 to 46 °C.

The molecule `O=C(Nc1ccc(Oc2ccccc2)cc1)Nc1sccc1C(=O)O` yielded a melting point of 195 to 198 °C.

For `COc1ccc(-c2csc(N)n2)cc1OC1CC2CCC1C2` (stereo unspecified), the melting point lay in the range of 168 to 178 °C.

`CC(C)(O)CCn1c2ccccc2c2cc(NC(=O)c3ccccc3Cl)ccc21` had a melting point of 120 to 124 °C.

In turn, `CCN(Cc1cc(Br)ccc1NCc1ccccc1)c1ccc(C(N)=O)nn1` registered a melting point of 160 to 162 °C.

`CC(C(O)c1cc(F)c(OCc2ccccc2)c(F)c1)N1CCC(O)(c2ccc(C(F)(F)F)cc2)CC1` (stereo unspecified): the melting point is 201 to 202 °C.

Take `COC(=O)c1cc(-c2c[nH]nc2-c2ccc(F)cc2)ccn1`: the melting point is 239 to 241 °C.

Molecule `O=C(N1CCCC(c2cccc3[nH]ccc23)C1)C(F)(F)F` (stereo unspecified) came in with a melting point of 170 °C.

`O=C(CCCCC1CCSS1)N1CCN(c2ccc([N+](=O)[O-])cc2)CC1` (stereo unspecified) showed a melting point of 97.6 to 98.5 °C.

`N#CSc1ccc(F)c(C#N)c1` displayed a melting point of 39 to 41 °C.

In turn, `CC(C(=O)Nc1ccc(Cl)cc1Cl)N1C(=O)C=CC1=O` (stereo unspecified) had a melting point of 131 °C.

For the molecule `CN(C)CC1CCc2[nH]c3c(c2C1=O)CCC3` (stereo unspecified), the melting point lay within 164 to 165 °C.

Regarding `COCCOC(=O)N=NC(=O)OCCOC`, the melting point lay in the range of 39.9 to 40.4 °C.

In turn, `O=C(NCc1ccc(Cl)cc1)c1cnc2ccc(CN3CCOCC3)cc2c1O` registered a melting point of 219 to 220 °C.

Regarding `COc1ccc(C(=O)Cc2c(Cl)cncc2Cl)cc1OC1CCCC1`, the melting point lay in the range of 119 to 120 °C.

Take `CCOC(=O)c1cnc2nn(C)cc2c1OC(C)C`: the melting point fell in the range of 107 to 109 °C.

The molecule `COc1cc2c(cc1Nc1ncc(Cl)c(Nc3ccc(N4CCOCC4)cc3OC)n1)CCN(CC(=O)OC(C)C)CC2` returned a melting point of 70 to 80 °C.

Regarding `O=CN1C(=O)c2ccccc2OC1C(Cl)(Cl)Cl` (stereo unspecified), the melting point is 114 °C.

As to `COc1ccnc(CS(=O)c2nc3c(C(F)(F)F)cccc3[nH]2)c1` (stereo unspecified), the melting point is 150 to 151 °C.

`Cc1c(C)c2c(c(C)c1NC(=O)CC(C)(C)C)C(c1ccc(-c3ccccc3)cc1)CO2` (stereo unspecified): the melting point was 218 to 219 °C.

As for `COc1ccccc1-c1ccc(C[C@H](NC(=O)C(C)c2c(Cl)cccc2Cl)C(=O)O)cc1` (stereo partly specified), the melting point fell in the range of 109 to 110 °C.

The molecule `CCOC(=O)C1=C(C)N=C(N)C(CC)(C(=O)OCC)C1c1cccc([N+](=O)[O-])c1` (stereo unspecified) had a melting point of 122 to 123 °C.

Molecule `CCCc1ccc(CCCC(P(=O)(O)O)P(=O)(O)O)cc1` displayed a melting point of 200 to 202 °C.

`Fc1ccc(-c2ncn(CCCCl)c2-c2ccncc2)cc1` displayed a melting point of 139 to 140 °C.

With `COc1cc(C(=O)Nc2cc(C(=O)c3ccccc3)ccc2N2CCOCC2)cc(OC)c1OC`, the melting point lay within 171 to 172 °C.

As for `CS(=O)c1ccc(-c2coc3ccc(-c4nnc(O)o4)cc23)cc1` (stereo unspecified), the melting point was 234 to 237 °C.

`N#CCCNC(=O)C1CC(CF)(CF)Oc2ccc([N+](=O)[O-])cc21` (stereo unspecified) displayed a melting point of 137 to 138 °C.

The molecule `CN(Cc1cc(C(F)(F)F)cc(C(F)(F)F)c1)C(=O)c1c(-c2ccc(F)cc2)c2ccsc2c(=O)n1C` yielded a melting point of 196 to 197 °C.

Molecule `CCOP(=O)(/C=C/c1cn(-c2ccccc2)nc1OCc1ccc(OCc2nc(N3CCCCC3)sc2C)c(OC)c1)OCC` gave a melting point of 95 to 96 °C.

In turn, `CC(C)(C)OC(=O)NCC(C(=O)OCc1ccccc1)c1ccccc1` (stereo unspecified) had a melting point of 58 to 59 °C.

`O=C(O)C(=O)c1ccc(OCC(=O)N2CCOCC2)cc1` came in with a melting point of 182 to 184 °C.

In turn, `CCOC(=O)CN1C(=O)[C@@H](NC(=O)OC(C)(C)C)CC(=O)c2ccccc21` displayed a melting point of 86 to 88 °C.

Take `CCC(O)(c1ccc(OCCN(C)C)cc1)c1cccc(Cl)c1` (stereo unspecified): the melting point was 108 to 109 °C.

Molecule `COc1ccc(C=Cc2cc(OC)c3c(c2)OCO3)cc1O` gave a melting point of 145 to 150 °C.

As to `Cn1c(=O)c2c(N)ncnc2n(C)c1=O`, the melting point is above 300 °C.

In the case of `O=C1CCC2(F)C3Cc4ccc(O)c5c4C2(CCN3CC2CC2)C1O5` (stereo unspecified), the melting point fell in the range of 188 to 190 °C.

Take `CN1C(=O)C(CC(=O)Nc2ccc(Cl)cc2)N=C(c2ccccc2)c2ccccc21` (stereo unspecified): the melting point was in the range of 238 to 240 °C.

Regarding `COC(=O)c1cc(Cl)cnc1NCc1ccc(OC)cc1`, the melting point lay within 75 to 77 °C.

In turn, `CC(C)c1ccc(-c2cn(-c3cccc(C(=O)O)c3)cn2)cc1` displayed a melting point of 248 to 250 °C.

Molecule `C=CC(O)CCCC(O)CCCC1(C)OCCO1` (stereo unspecified) registered a melting point of 52 to 54 °C.

In turn, `Cc1nc2ccc(Cl)cc2c(=O)n1CCCn1ccnc1` registered a melting point of 190 to 192 °C.

Molecule `C1=CCC23C=CC=CN2c2nccn2C3=C1` (stereo unspecified) had a melting point of 258 to 260 °C.

As to `CCN(c1nc(C)cc(C)n1)c1ccc(N(C)C(C)=O)cc1SC`, the melting point lay in the range of 158 to 160 °C.

Turning to `Cn1nc(N2c3ccccc3C[C@H]2C(=O)N2CCCC(C)(C)C2)ccc1=O`, the melting point lay in the range of 125 to 129 °C.

In turn, `COc1cc2nc(-c3ccc(Cl)cc3)nc(O)c2cc1OC` gave a melting point of 329 °C.

`O=C(NCC1CCCCN1)c1cc(O)ccc1OCC(F)(F)F` (stereo unspecified) registered a melting point of 134 to 137 °C.

The molecule `Cc1ccc(C(=O)NC(C)C)c(Nc2ccc3cn[nH]c3c2)n1` had a melting point of 212 to 214 °C.

Turning to `CONC(=NCCSCc1[nH]cnc1C)NC#N`, the melting point lay within 155 to 156 °C.

Turning to `CC(C)(C)c1ccc(C2CCSC(c3c(F)cccc3F)=N2)cc1` (stereo unspecified), the melting point was in the range of 91 to 91.5 °C.

`Nc1ccc(CCNC(=O)c2cc(O)c(O)c(O)c2)cc1`: the melting point is 167 to 169 °C.

`CON(C)C(=O)CCc1nnc(-c2ccc3c(c2)CCO3)o1`: the melting point was in the range of 112 to 113 °C.

Turning to `C=C1CSC2C(NC(=O)COc3ccccc3)C(=O)N2C1C(=O)O` (stereo unspecified), the melting point was 185 to 188 °C.

Turning to `CC(C)CC(O)(Cn1cncn1)c1ccccc1` (stereo unspecified), the melting point is 94 to 95 °C.

With `Cc1coc(C(=O)c2ccc(F)c(F)c2Nc2ccc(I)cc2F)n1`, the melting point was determined as 127 °C.

Consider `COC(=O)C1=C(C)NC(C)=C(C(=O)OCCCCCCOc2cc(-c3ccc(OC)cc3)[nH]n2)C1c1cccc(Cl)c1Cl` (stereo unspecified), for which the melting point lay in the range of 146 to 148 °C.

`COc1cccc(Nc2c([N+](=O)[O-])cc(C(=O)O)cc2S(N)(=O)=O)c1` registered a melting point of 253 to 254 °C.

Consider `CCOCc1nc2c(N)nc3cc(-c4cccc(C(=O)N5CCCC5)c4)ccc3c2n1CC(C)(C)O`, for which the melting point fell in the range of 216 to 218 °C.

In turn, `CCCc1nn(C)c2c(=O)[nH]c(-c3cc(C(O)CN4CCNCC4)ccc3OCC)nc12` (stereo unspecified) had a melting point of 130 to 140 °C.

Consider `CCCCCCCCCCCCn1nnc(N(C(=O)Nc2ccc(F)cc2F)c2ccccc2)n1`, for which the melting point lay within 55 to 57 °C.

In turn, `CC(=O)OC1CSC(Oc2ccc(-c3cccnc3)cc2F)C(OC(C)=O)C1OC(C)=O` (stereo unspecified) gave a melting point of 122 °C.

`CC(C)(N)c1ccc(-c2nc(Nc3ccc(F)cc3)ncc2C#N)cc1` returned a melting point of 228 to 229 °C.

The molecule `CCCCn1c(=Nc2ccccc2)sc2ncccc2c1=O` had a melting point of 68 to 69 °C.

As to `CCOC(=O)C(C)(C)n1c(=O)[nH]c2ccc([N+](=O)[O-])cc2c1=O`, the melting point lay within 184 to 185 °C.

For the molecule `CCOC(=O)Nc1[nH]c2ccc(Sc3ccccc3)cc2c1C#N`, the melting point lay within 181 to 182 °C.

In turn, `CCC(=NOCCO)c1ccc(-c2ccccc2)cc1` returned a melting point of 76 °C.

Turning to `c1ccc(C(NC2C3CC4CC(C3)CC2(OCc2ccc(-c3nc5ccccc5o3)cc2)C4)(c2ccccc2)c2ccccc2)cc1` (stereo unspecified), the melting point was in the range of 208 to 210 °C.

In turn, `O=C(O)[C@H](CCc1ccccc1)NS(=O)(=O)c1ccc2c(c1)Cc1ccccc1O2` yielded a melting point of 138 to 142 °C.

`COc1ccc2c(c1)c(=O)oc(=O)n2-c1ccc(OCc2ccccc2)cc1` had a melting point of 155 °C.

In the case of `O=C(Nc1nc(C(F)(F)F)co1)C1c2ccccc2Oc2cc(F)ccc21` (racemic), the melting point turned out to be 221 °C.

With `CON1CCC2(CC1)C(=O)C(Cl)(c1cc(C)c(C)cc1Cl)C(=O)N2C` (stereo unspecified), the melting point lay within 93 to 94 °C.

`CC(OCc1cc2nc(C(F)(F)F)ccc2n1S(=O)(=O)c1ccccc1)C(=O)O` (stereo unspecified) gave a melting point of 140 °C.

The molecule `O=C(Nc1nccs1)C(CC1CCCC1)c1ccc(Cl)c([N+](=O)[O-])c1` (stereo unspecified) gave a melting point of 68 to 72 °C.

`CC(=O)c1sc(-c2ccncc2)c(-c2ccncc2)c1C` had a melting point of 140 to 142 °C.

For `COc1cccc2c1C(OC)(OC)C=CC2=O`, the melting point was in the range of 62 to 63 °C.

`O=C(CCCCc1cc(O)c(O)c([N+](=O)[O-])c1)NC12CC3CC(CC(C3)C1)C2` displayed a melting point of 157 to 160 °C.

The molecule `O=CNCc1ccc(CN2CCN(c3ncccn3)CC2)cc1` yielded a melting point of 97 to 98 °C.

`Nc1nnc(CCC2CCCCC2)s1` had a melting point of 253 to 255 °C.

In turn, `CSc1cnc2cc(Cl)sc2c1O` had a melting point of 235 to 237 °C.

The molecule `CCCCCCn1c2ccccc2c2ccccc21` returned a melting point of 62.5 to 64.1 °C.

As to `O=C(N[C@@H](Cc1c[nH]c2ccccc12)C(=O)O)c1ccc(Br)cc1`, the melting point lay in the range of 162 to 163 °C.

Molecule `NC(=O)Cc1ccc2ccn(C3CCN(CCc4ccc(F)cc4F)CC3)c2c1` displayed a melting point of 157 to 158 °C.

Consider `CCOC(=O)C1CS(=O)(=O)c2c(C(=O)c3ccccc3)cc(Cl)cc21` (stereo unspecified), for which the melting point fell in the range of 138 to 139 °C.

The molecule `O=C1c2c(Br)cccc2-n2cnc(I)c2[C@@H]2CCCN12` registered a melting point of 301 to 303 °C.

On to `COc1cccc2c1C(=O)c1c(O)cc(CO)cc1C2=O`, for which the melting point was in the range of 215 to 216 °C.

In turn, `CCOC(=O)C(=CN(C)C)C(=O)c1cc2cc(F)c(F)c(F)c2nc1Cl` registered a melting point of 118 °C.

One may read the melting point as the temperature of the solid-liquid transition.
